Literature values in patent US11129815B2, “Solid dispersions comprising tacrolimus” (Veloxis Pharmaceuticals A/S, priority 2003, dated 2021).

Key:
[1] = not given; remark: listed apart in the source

In the case of C=CC[C@@H]1/C=C(\C)C[C@H](C)C[C@H](OC)[C@H]2O[C@@](O)(C(=O)C(=O)N3CCCC[C@H]3C(=O)O[C@H](/C(C)=C/[C@@H]3CC[C@@H](O)[C@H](OC)C3)[C@H](C)[C@@H](O)CC1=O)[C@H](C)C[C@@H]2OC [Tacrolimus], the bioavailability (after oral administration) is given as no more than 20%, the “mean time-to-peak concentration (tmax)” value (oral administration, healthy subjects or kidney or liver transplanted patients) is given as 1 to 2 h and the solubility in chloroform ([1]; chloroform) is given as “very soluble”. The solubility in ethanol ([1]; ethanol) was “freely soluble”, the solubility in methanol ([1]; methanol) was “very soluble” and the solubility in water ([1]; water) was “practically insoluble”.
